The values below come from paper PMC10290391, “Targeted degradation of ⍺-synuclein aggregates in Parkinson’s disease using the AUTOTAC technology” (Molecular Neurodegeneration, 2023).

The subject of series [1] is extracellular total α-syn. Briefly: ELISA of extracellular α-syn in conditioned media of SH-SY5Y α-syn A53T cells. The series is classed as cell-based, human. The protocol:
The conditioned medium was collected from differentiated SH-SY5Y cells infected with adenovirus overexpressing human α-syn. Following 24 h infection, the medium was replaced with fresh media containing DMSO or ATC161. The medium was collected after 24 h and centrifuged at 1,000 rpm to remove cell debris and dead cells. The supernatant was concentrated using Amicon 10 K MWCO filters (Millipore, Billerica, MA). The amounts of α-syn in conditioned medium were measured by enzyme-linked immunosorbent assay (ELISA) with an ELISA kit (Abcam, human α-syn ELISA kit, ab260052) following the provider’s instruction. The subsets of collected media were treated to fresh SH-SY5Y cells in order to determine the level of α-syn propagated to the fresh cells.
Background: In an ELISA, binding on a coated surface is turned into a signal by an enzyme label.

Series [2] in a line: Pharmacokinetic study of ATC161 in male ICR mice. It counts as in vivo. As for the experimental part: Supplementary file 13024_2023_630_MOESM1_ESM.eps: Additional file 1: Supplementary figure 1. Drug profiles of ATL and Autotac compounds. A, drug profiles of ATL compounds. Tissue concentrations and oral bioavailability were measured in ICR male mice upon 5 mg/kg oral administration of each ATL compound. B, structures of ATC161~164. C, Pharmacokinetic study of ATC161 conducted in male ICR mice otherwise indicated. M.W. represents molecular weight. The plasma exposure and the half-life were determined upon either POor IPATC161 administration. The drug tissue exposure was determined in Tau301L BiFC mice. IV refers to intravenous injection.

Another series concerns LC3. Briefly: Western blot of LC3 lipidation (LC3-I into LC3-II) in HeLa cells. It counts as cell-based. The following applies: 1 μM, 24 h. The protocol:
(§1) For the separation of Triton X-100 soluble and insoluble fractions for monitoring α-syn, cells were washed with PBS and lysed in Triton X-100 buffer (50 mM Tris / 150 mM NaCl / 100 mM EDTA / 1% Triton X-100, pH 7.6) containing protease and phosphatase inhibitors for 30 min on ice. The lysates were centrifuged at 12,000 rpm for 30 min, and the soluble supernatant was taken. The remaining pellets were washed with Triton X-100 buffer, followed by centrifugation at 12,000 rpm for 20 min. The supernatants were discarded, and the resulting insoluble pellets were resuspended in laemli buffer containing 1% SDS. Samples were subjected to SDS-PAGE. After blocking with 5% milk and washing process, the membranes were incubated with primary antibodies overnight at 4 °C, followed by washing with PBS-T and incubation with horseradish peroxidase-conjugated secondary antibodies. Immunoreactive bands were detected using ECL reagents (Thermo Fisher Scientific, 32,106). For non-reducing SDS-PAGE, cell lysates were mixed with 4 × laemli buffer containing no 2-mercaptoethanol. For reducing SDS-PAGE, cells were lysed by RIPA buffer (150 mM NaCl, 1% Triton X-100, 1% sodium deoxycholate, 0.1% Tris–HCl, pH 7.5, 2 mM EDTA) and prepared with 5 × protein sample buffer containing 2-mercaptoethanol (Elpis Biotech, EBA-1052). Densitometry of developed bands was analyzed with ImageJ (NIH, Bethesda).

Another series relates to LAMP1+ lysosomes. Description: Immunocytochemistry of LAMP1+ lysosomes in SH-SY5Y α-syn A53T cells transduced with PFFs. The series is classed as cell-based, human. The following applies: 1 μM, 6 h, with Baf. A1. The protocol:
Cells were fixed with 4% paraformaldehyde (PFA) for 20 min at room temperature, followed by permeabilization with 0.1% Triton X-100 buffer for 15 min. The cells were blocked with 2% bovine serum albumin (BSA) in PBS for 1 h at room temperature. Then, the cells were incubated with primary antibodies diluted in the blocking buffer overnight at 4 °C. After washing with PBS, the slides were incubated with AlexaFluor-conjugated secondary antibodies for 1 h at room temperature. After mounting the slides with mounting solution containing DAPI, the images were captured on an LSM700 confocal microscopy (Carl Zeiss).

In the next series the test system is cleaved-PARP1. Briefly: Western blot of cleaved-PARP1 in h-α-syn PFF-transduced HEK293A cells. The following applies: 1 μM, 24 h. It counts as cell-based, human. The protocol:
as §1
Background: Immunoblotting shows a protein as a band on a membrane.

The subject of the next series is insoluble α-syn species. Description: Triton X-100 fractionation assay in primary rat cortex neurons. The series is classed as cell-based. The protocol:
All procedures were conducted according to the IACUC and were approved by Seoul National University Institutional Animal Care and Use Committee. Rat cortex primary neuron were prepared from E16 Sprague–Dawley rat embryos (Orient Bio). Anesthetized […] were sacrificed by cervical dislocation, and embryos were removed. Cortices were dissected on the ice. Neurons were trypsinized, dissociated and plated onto poly-d-lysine coated cover slips at a density of 5 × 10^4 cells per cm^2 per 12-well plate or 6-well plate. Primary neurons were maintained in Neurobasal A medium containing 2% B27, 0.5 mM glutamax and antibiotics. Cells at 7 DIV were treated with h-α-syn PFF (1 µg/mL) for 14 d.
For the separation of Triton X-100 soluble and insoluble fractions for monitoring α-syn, cells were washed with PBS and lysed in Triton X-100 buffer (50 mM Tris / 150 mM NaCl / 100 mM EDTA / 1% Triton X-100, pH 7.6) containing protease and phosphatase inhibitors for 30 min on ice. The lysates were centrifuged at 12,000 rpm for 30 min, and the soluble supernatant was taken. The remaining pellets were washed with Triton X-100 buffer, followed by centrifugation at 12,000 rpm for 20 min. […] Immunoreactive bands were detected using ECL reagents (Thermo Fisher Scientific, 32,106). […] Densitometry of developed bands was analyzed with ImageJ (NIH, Bethesda).

On to `Fc1ccc(COc2cccc(CNCCOCCOCCNc3cccc(-c4cc(-c5ccc6c(c5)OCO6)n[nH]4)c3)c2)cc1` [ATC161, 3-(3-(benzo[d][1,3]dioxol-5-yl)-1H-pyrazol-5-yl)-N-(2-(2-(2-((3-((4-fluorobenzyl)oxy)benzyl)amino)ethoxy)ethoxy)ethyl)aniline], for which the “reduction of relative level of extracellular total α-syn” value in series [1] was found to be 50%. In addition, in series [2] (male, ICR, oral, mouse plasma, read-out: terminal elimination half-life (T1/2) (converted)), the half-life is 3.7 h. In series [2] (oral administration, mice), this compound came in with a systemic exposure of 3299.3 ng·h/mL. In addition, the “lipidation of LC3 into LC3-II compared with ATC162” value with LC3 is “induced the lipidation of LC3 into LC3-II more efficiently”. In addition, the “increase in level of LAMP1+ lysosomes” value in the series with LAMP1+ lysosomes stood at 2.9 fold. Also, in the series with cleaved-PARP1, the “cleaved-PARP1 level (apoptotic process)” value is “efficiently inhibited such an apoptotic process”. Further, the “concentration of lysosomal degradation of aggregates” value in the series with insoluble α-syn species (PD model cells (discussion)) was 10 nM. For the same compound, the “concentration from which insoluble α-syn species are targeted” value in the series with insoluble α-syn species (primary rat cortex neurons, soluble monomeric form intact) is 10 nM.
